In US11332459B2 (TEIJIN PHARMA LIMITED, priority 2017, dated 2022):
pIC50: −log10 of the molar value. Structures can show the parent of a compound that is named as a salt.

Molecular target: T1, human TRPC6 (Homo sapiens, UniProt Q9Y210)
T1 construct: expressed in transfected cells
T1 sequence (Q9Y210 1-931): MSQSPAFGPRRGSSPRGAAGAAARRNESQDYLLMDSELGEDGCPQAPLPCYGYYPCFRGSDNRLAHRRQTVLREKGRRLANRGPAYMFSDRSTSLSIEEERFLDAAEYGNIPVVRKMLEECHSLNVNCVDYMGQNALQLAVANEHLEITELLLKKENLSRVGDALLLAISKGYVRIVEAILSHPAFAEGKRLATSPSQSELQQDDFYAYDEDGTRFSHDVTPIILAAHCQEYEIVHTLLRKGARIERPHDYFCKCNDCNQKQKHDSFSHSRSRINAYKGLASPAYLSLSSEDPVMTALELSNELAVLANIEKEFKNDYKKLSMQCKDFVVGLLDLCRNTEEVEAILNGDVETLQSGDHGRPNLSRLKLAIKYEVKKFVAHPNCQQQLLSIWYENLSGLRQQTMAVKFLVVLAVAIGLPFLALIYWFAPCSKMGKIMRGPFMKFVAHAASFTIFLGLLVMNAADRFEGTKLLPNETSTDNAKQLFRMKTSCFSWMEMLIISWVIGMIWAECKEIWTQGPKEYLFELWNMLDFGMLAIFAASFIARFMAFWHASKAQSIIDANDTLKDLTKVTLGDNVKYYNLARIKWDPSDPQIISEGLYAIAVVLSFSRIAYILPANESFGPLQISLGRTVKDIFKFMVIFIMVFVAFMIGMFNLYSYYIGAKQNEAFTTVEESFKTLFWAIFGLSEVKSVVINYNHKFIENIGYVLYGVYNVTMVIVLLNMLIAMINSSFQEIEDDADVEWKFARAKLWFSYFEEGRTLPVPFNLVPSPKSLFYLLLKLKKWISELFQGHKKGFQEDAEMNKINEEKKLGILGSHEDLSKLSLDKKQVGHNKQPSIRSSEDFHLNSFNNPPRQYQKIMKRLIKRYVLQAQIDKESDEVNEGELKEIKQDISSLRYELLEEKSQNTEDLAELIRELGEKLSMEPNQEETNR
Test: TRPC6 calcium flux assay (FLIPR, OAG-stimulated calcium influx)
Format: cell-based
Details: HEK293 cells stably transfected with human TRPC6, read-out: hTRPC6 Potency
Procedure, shortened: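 HEK293 cells stably expressing human TRPC6, loaded with calcium dye 90–120 min at RT, then given compound for 25 min before OAG (50 uM final, 0.5% DMSO) in HEPES buffer pH 7.2 with 2 mM CaCl2. Background-subtracted FLIPR peak over 180 s normalized to OAG vs buffer; IC50 from dose plot.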

Structure (SMILES)	pIC50
N#Cc1ccc(Cn2c(N3CC[C@@H](F)[C@H](N)C3)nc3cc(Cl)cnc32)nc1 [Example 92, 6-((2-((3R,4R)-3-amino-4-fluoropiperidin-1-yl)-6-chloro-3H-imidazo[4,5-b]pyridin-3-yl)methyl)nicotinonitrile]	7.36
N#Cc1ccc(Cn2c(N3CC[C@@H](F)[C@H](N)C3)nc3ncc(Cl)cc32)nc1 [Example 93, 6-((2-((3R,4R)-3-amino-4-fluoropiperidin-1-yl)-6-chloro-1H-imidazo[4,5-b]pyridin-1-yl)methyl)nicotinonitrile]	8.16
CC(C)(C)NC(=O)c1ccc(Cn2c(N3CC[C@@H](F)[C@H](N)C3)nc3ncc(Cl)cc32)nc1 [Example 94, 6-((2-((3R,4R)-3-amino-4-fluoropiperidin-1-yl)-6-chloro-1H-imidazo[4,5-b]pyridin-1-yl)methyl)-N-(tert-butyl)nicotinamide]	6.21
N#Cc1ccc(Cn2c(N3CCC4(CNC4)C3)nc3ccccc32)nc1 [Example 97, 6-((2-(2,6-diazaspiro[3.4]octan-6-yl)-1H-benzo[d]imidazol-1-yl)methyl)nicotinonitrile]	< 5.43
N#Cc1ccc(Cn2c(N3C[C@@H]4OCCN[C@@H]4C3)nc3ccccc32)nc1 [Example 98, 6-((2-((4aR,7aS)-hexahydropyrrolo[3,4-b][1,4]oxazin-6(2H)-yl)-1H-benzo[d]imidazol-1-yl)methyl)nicotinonitrile hydrochloride]	< 5.43
N#Cc1ccc(Cn2c(N3C[C@@H]4NCCO[C@@H]4C3)nc3ccccc32)nc1 [Example 99, 6-((2-((4aS,7aR)-hexahydropyrrolo[3,4-b][1,4]oxazin-6(2H)-yl)-1H-benzo[d]imidazol-1-yl)methyl)nicotinonitrile hydrochloride]	< 5.43
N#Cc1ccc(Cn2c(N3C[C@H]4NCCO[C@@H]4C3)nc3ccccc32)nc1 [Example 100, 6-((2-((4aR,7aR)-hexahydropyrrolo[3,4-b][1,4]oxazin-6(2H)-yl)-1H-benzo[d]imidazol-1-yl)methyl)nicotinonitrile]	7.22
N#Cc1ccc(Cn2c(N3C[C@@H]4NCCO[C@H]4C3)nc3ccccc32)nc1 [Example 101, 6-((2-((4aS,7aS)-hexahydropyrrolo[3,4-b][1,4]oxazin-6(2H)-yl)-1H-benzo[d]imidazol-1-yl)methyl)nicotinonitrile]	< 5.43
N#Cc1ccc(Cn2c(N3CCC[C@@](N)(C(N)=O)C3)nc3ccccc32)nc1 [Example 102, (S)-3-amino-1-(1-((5-cyanopyridin-2-yl)methyl)-1H-benzo[d]imidazol-2-yl)piperidine-3-carboxamide]	< 5.43
N#Cc1ccc(Cn2c(N3CCC[C@](N)(C(N)=O)C3)nc3ccccc32)nc1 [Example 103, (R)-3-amino-1-(1-((5-cyanopyridin-2-yl)methyl)-1H-benzo[d]imidazol-2-yl)piperidine-3-carboxamide]	< 5.43
N#Cc1ccc(Cn2c(N3CCC[C@@](N)(CO)C3)nc3ccccc32)nc1 [Example 104, (S)-6-((2-(3-amino-3-(hydroxymethyl)piperidin-1-yl)-1H-benzo[d]imidazol-1-yl)methyl)nicotinonitrile]	7.21
N#Cc1ccc(Cn2c(N3CCC[C@](N)(CO)C3)nc3ccccc32)nc1 [Example 105, (R)-6-((2-(3-amino-3-(hydroxymethyl)piperidin-1-yl)-1H-benzo[d]imidazol-1-yl)methyl)nicotinonitrile]	5.61
Cc1cc2nc(N3CC[C@@H](F)[C@H](N)C3)n(Cc3ccc(C#N)cn3)c2cc1Cl [Example 112, 6-((2-((3R,4R)-3-amino-4-fluoro-1-piperidinyl)-6-chloro-5-methyl-1H-benzimidazol-1-yl)methyl)-3-pyridinecarbonitrile]	9.55
Cc1cc2c(cc1Cl)nc(N1CC[C@@H](F)[C@H](N)C1)n2Cc1ccc(C#N)cn1 [Example 113, 6-((2-((3R,4R)-3-amino-4-fluoro-1-piperidinyl)-5-chloro-6-methyl-1H-benzimidazol-1-yl)methyl)-3-pyridinecarbonitrile]	9.54

Now from value to compound:

pIC50	Structure (SMILES)
9.03	N#Cc1ccc(Cn2c(N3CCC(F)(F)[C@H](N)C3)nc3c(F)cc(F)cc32)nc1 [Example 87, (R)-6-((2-(3-amino-4,4-difluoropiperidin-1-yl)-4,6-difluoro-1H-benzo[d]imidazol-1-yl)methyl)nicotinonitrile hydrochloride]
9.19	N#Cc1ccc(Cn2c(N3CCC(F)(F)[C@H](N)C3)nc3ccc(F)cc32)nc1 [Example 88, (R)-6-((2-(3-amino-4,4-difluoropiperidin-1-yl)-6-fluoro-1H-benzo[d]imidazol-1-yl)methyl)nicotinonitrile]
6.43	N#Cc1ccc(Cn2c(N3CCC(F)(F)[C@H](N)C3)nc3c(C(F)(F)F)cccc32)nc1 [Example 89, (R)-6-((2-(3-amino-4,4-difluoropiperidin-1-yl)-4-(trifluoromethyl)-1H-benzo[d]imidazol-1-yl)methyl)nicotinonitrile]
7.17	N#Cc1ccc(Cn2c(N3CC[C@@H](F)[C@H](N)C3)nc3c(C(F)(F)F)cccc32)nc1 [Example 90, 6-((2-((3R,4R)-3-amino-4-fluoropiperidin-1-yl)-4-(trifluoromethyl)-1H-benzo[d]imidazol-1-yl)methyl)nicotinonitrile]
7.48	N#Cc1ccc(Cn2c(N3CC[C@H](F)[C@H](N)C3)nc3c(C(F)(F)F)cccc32)nc1 [Example 91, 6-((2-((3R,4S)-3-amino-4-fluoropiperidin-1-yl)-4-(trifluoromethyl)-1H-benzo[d]imidazol-1-yl)methyl)nicotinonitrile]
< 5.43	N#Cc1ccc(Cn2c(N3CC[C@@H](O)[C@H](N)C3)nc3ccccc32)nc1 [Example 95, 6-((2-((3R,4R)-3-amino-4-hydroxypiperidin-1-yl)-1H-benzo[d]imidazol-1-yl)methyl)nicotinonitrile]
6.87	N#Cc1ccc(Cn2c(N3CC[C@H](O)[C@@H](N)C3)nc3ccccc32)nc1 [Example 96, 6-((2-((3S,4S)-3-amino-4-hydroxypiperidin-1-yl)-1H-benzo[d]imidazol-1-yl)methyl)nicotinonitrile]
9.35	N#Cc1ccc(Cn2c(N3CC[C@H](F)[C@H](N)C3)nc3ccc(C(F)(F)F)cc32)nc1 [Example 106, 6-((2-((3R,4S)-3-amino-4-fluoro-1-piperidinyl)-6-(trifluoromethyl)-1H-benzimidazol-1-yl)methyl)-3-pyridinecarbonitrile]
8.10	N#Cc1ccc(Cn2c(N3CC[C@H](F)[C@H](N)C3)nc3cc(C(F)(F)F)ccc32)nc1 [Example 107, 6-((2-((3R,4S)-3-amino-4-fluoro-1-piperidinyl)-5-(trifluoromethyl)-1H-benzimidazol-1-yl)methyl)-3-pyridinecarbonitrile]
9.36	N#Cc1ccc(Cn2c(N3CCC(F)(F)[C@H](N)C3)nc3ccc(C(F)(F)F)cc32)nc1 [Example 108, 6-((2-((3R)-3-amino-4,4-difluoro-1-piperidinyl)-6-(trifluoromethyl)-1H-benzimidazol-1-yl)methyl)-3-pyridinecarbonitrile]
7.36	N#Cc1ccc(Cn2c(N3CCC(F)(F)[C@H](N)C3)nc3cc(C(F)(F)F)ccc32)nc1 [Example 109, 6-((2-((3R)-3-amino-4,4-difluoro-1-piperidinyl)-5-(trifluoromethyl)-1H-benzimidazol-1-yl)methyl)-3-pyridinecarbonitrile]
8.91	Cc1ccc2c(c1)nc(N1CC[C@@H](F)[C@H](N)C1)n2Cc1ccc(C#N)cn1 [Example 110, 6-((2-((3R,4R)-3-amino-4-fluoro-1-piperidinyl)-5-methyl-1H-benzimidazol-1-yl)methyl)-3-pyridinecarbonitrile]
9.10	Cc1ccc2nc(N3CC[C@@H](F)[C@H](N)C3)n(Cc3ccc(C#N)cn3)c2c1 [Example 111, 6-((2-((3R,4R)-3-amino-4-fluoro-1-piperidinyl)-6-methyl-1H-benzimidazol-1-yl)methyl)-3-pyridinecarbonitrile]
9.42	Cc1cc2nc(N3CC[C@@H](F)[C@H](N)C3)n(Cc3ccc(C#N)cn3)c2cc1F [Example 114, 6-((2-((3R,4R)-3-amino-4-fluoro-1-piperidinyl)-6-fluoro-5-methyl-1H-benzimidazol-1-yl)methyl)-3-pyridinecarbonitrile]
9.35	Cc1cc2c(cc1F)nc(N1CC[C@@H](F)[C@H](N)C1)n2Cc1ccc(C#N)cn1 [Example 115, 6-((2-((3R,4R)-3-amino-4-fluoro-1-piperidinyl)-5-fluoro-6-methyl-1H-benzimidazol-1-yl)methyl)-3-pyridinecarbonitrile]
